Test results taken from ChEMBL document CHEMBL3046358, “Multiple Pro-197 substitutions in the acetolactate synthase of rigid ryegrass (Lolium rigidum) and their impact on chlorsulfuron activity and plant growth” (Crop Prot, 2012).

Columns and labels:
Lolium rigidum [1] = assay: Herbicidal activity against Lolium rigidum accession A06 assessed as fresh weight reduction applied at 4 times pre-emergence recommended rate relative to untreated control; type: functional; set-up: scale not given: the % may be the effect or the level left
Lolium rigidum [2] = assay: Herbicidal activity against Lolium rigidum accession A13 assessed as fresh weight reduction applied at 4 times pre-emergence recommended rate relative to untreated control; type: functional; set-up: scale not given: the % may be the effect or the level left
Acetolactate synthase [3] = molecular target: T1, Acetolactate synthase (Lolium rigidum, UniProt A7XBP7); assay: Inhibition of acetolactate synthase Ser-197/Ser-197 mutant in Lolium rigidum accession A21 leaves extracts by acetolactate production assay; settings: read-out: I50
Lolium rigidum [4] = assay: Herbicidal activity against Lolium rigidum accession A14 assessed as fresh weight reduction applied at 1 times pre-emergence recommended rate relative to untreated control; type: functional; set-up: scale not given: the % may be the effect or the level left
Lolium rigidum [5] = assay: Herbicidal activity against Lolium rigidum accession A10 assessed as fresh weight reduction applied at 1 times pre-emergence recommended rate applied in pots where terbufos had been incorporated into the soil relative to untreated control; type: functional; set-up: scale not given: the % may be the effect or the level left
Lolium rigidum [6] = assay: Herbicidal activity against Lolium rigidum accession A12 assessed as fresh weight reduction applied at 4 times pre-emergence recommended rate relative to untreated control; type: functional; set-up: scale not given: the % may be the effect or the level left
Lolium rigidum [7] = assay: Herbicidal activity against Lolium rigidum accession A06 assessed as emergence rate applied at 1 times pre-emergence recommended rate relative to untreated control; type: functional
Lolium rigidum [8] = assay: Herbicidal activity against Lolium rigidum accession A15 assessed as fresh weight reduction applied at 1 times pre-emergence recommended rate applied in pots where terbufos had been incorporated into the soil relative to untreated control; type: functional; set-up: scale not given: the % may be the effect or the level left
Lolium rigidum [9] = assay: Herbicidal activity against Lolium rigidum accession A04 assessed as emergence rate applied at 1 times pre-emergence recommended rate relative to untreated control; type: functional
Lolium rigidum [10] = assay: Herbicidal activity against Lolium rigidum accession A15 assessed as emergence rate applied at 1 times pre-emergence recommended rate applied in pots where terbufos had been incorporated into the soil relative to untreated control; type: functional
Lolium rigidum [11] = assay: Herbicidal activity against Lolium rigidum accession A03 assessed as fresh weight reduction applied at 1 times pre-emergence recommended rate relative to untreated control; type: functional; set-up: scale not given: the % may be the effect or the level left
Lolium rigidum [12] = assay: Herbicidal activity against Lolium rigidum accession A04 assessed as fresh weight reduction applied at 1 times pre-emergence recommended rate relative to untreated control; type: functional; set-up: scale not given: the % may be the effect or the level left
[13] = molecular target: T2, Acetolactate synthase (Lolium rigidum) (UniProt A7XBP7); assay: Resistance index, ratio of I50 for acetolactate synthase Ala-197/Ala-197 mutant in Lolium rigidum accession A05 leaves extracts to I50 for acetolactate synthase in Lolium rigidum accession A01 leaves extracts
T2 sequence (whole entry): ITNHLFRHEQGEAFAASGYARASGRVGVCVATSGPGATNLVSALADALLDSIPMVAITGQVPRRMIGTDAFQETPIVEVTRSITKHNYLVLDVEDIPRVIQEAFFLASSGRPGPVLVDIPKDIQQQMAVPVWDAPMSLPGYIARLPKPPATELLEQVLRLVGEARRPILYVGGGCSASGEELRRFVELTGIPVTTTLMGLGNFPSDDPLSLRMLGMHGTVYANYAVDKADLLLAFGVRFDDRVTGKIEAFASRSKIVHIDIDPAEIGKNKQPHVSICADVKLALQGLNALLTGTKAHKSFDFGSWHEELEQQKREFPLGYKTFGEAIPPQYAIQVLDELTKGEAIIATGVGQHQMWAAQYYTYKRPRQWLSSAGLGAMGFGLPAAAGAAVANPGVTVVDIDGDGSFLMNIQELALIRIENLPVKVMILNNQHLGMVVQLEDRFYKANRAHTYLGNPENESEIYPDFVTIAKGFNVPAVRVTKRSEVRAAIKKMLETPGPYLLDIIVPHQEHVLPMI

Lolium rigidum [14] = assay: Herbicidal activity against Lolium rigidum accession A11 assessed as emergence rate applied at 1 times pre-emergence recommended rate relative to untreated control; type: functional
Lolium rigidum [15] = assay: Herbicidal activity against Lolium rigidum accession A04 assessed as emergence rate applied at 1 times pre-emergence recommended rate applied in pots where terbufos had been incorporated into the soil relative to untreated control; type: functional
Lolium rigidum [16] = assay: Herbicidal activity against Lolium rigidum accession A07 assessed as emergence rate applied at 1 times pre-emergence recommended rate applied in pots where terbufos had been incorporated into the soil relative to untreated control; type: functional
Lolium rigidum [17] = assay: Herbicidal activity against Lolium rigidum accession A09 assessed as fresh weight reduction applied at 4 times pre-emergence recommended rate relative to untreated control; type: functional; set-up: scale not given: the % may be the effect or the level left
Lolium rigidum [18] = assay: Herbicidal activity against Lolium rigidum accession A07 assessed as fresh weight reduction applied at 4 times pre-emergence recommended rate relative to untreated control; type: functional; set-up: scale not given: the % may be the effect or the level left
[19] = molecular target: T2, Acetolactate synthase (Lolium rigidum); assay: Resistance index, ratio of I50 for acetolactate synthase Leu-197/Leu-197 mutant in Lolium rigidum accession A08 leaves extracts to I50 for acetolactate synthase in Lolium rigidum accession A01 leaves extracts
[20] = molecular target: T2, Acetolactate synthase (Lolium rigidum); assay: Resistance index, ratio of I50 for acetolactate synthase Ala-197/Ala-197 mutant in Lolium rigidum accession A16 leaves extracts to I50 for acetolactate synthase in Lolium rigidum accession A01 leaves extracts
Lolium rigidum [21] = assay: Herbicidal activity against Lolium rigidum accession A02 assessed as emergence rate applied at 4 times pre-emergence recommended rate relative to untreated control; type: functional
Lolium rigidum [22] = assay: Herbicidal activity against Lolium rigidum accession A12 assessed as emergence rate applied at 1 times pre-emergence recommended rate applied in pots where terbufos had been incorporated into the soil relative to untreated control; type: functional
Lolium rigidum [23] = assay: Herbicidal activity against Lolium rigidum accession A08 assessed as emergence rate applied at 4 times pre-emergence recommended rate relative to untreated control; type: functional
Lolium rigidum [24] = assay: Herbicidal activity against Lolium rigidum accession A07 assessed as fresh weight reduction applied at 1 times pre-emergence recommended rate applied in pots where terbufos had been incorporated into the soil relative to untreated control; type: functional; set-up: scale not given: the % may be the effect or the level left
Acetolactate synthase [25] = molecular target: T1, Acetolactate synthase; assay: Inhibition of acetolactate synthase Ala-197/Ala-197 mutant in Lolium rigidum accession A06 leaves extracts by acetolactate production assay; settings: read-out: I50
Lolium rigidum [26] = assay: Herbicidal activity against Lolium rigidum accession A02 assessed as fresh weight reduction applied at 1 times pre-emergence recommended rate applied in pots where terbufos had been incorporated into the soil relative to untreated control; type: functional; set-up: scale not given: the % may be the effect or the level left
Lolium rigidum [27] = assay: Herbicidal activity against Lolium rigidum accession A03 assessed as emergence rate applied at 1 times pre-emergence recommended rate relative to untreated control; type: functional
Lolium rigidum [28] = assay: Herbicidal activity against Lolium rigidum accession A08 assessed as fresh weight reduction applied at 1 times pre-emergence recommended rate relative to untreated control; type: functional; set-up: scale not given: the % may be the effect or the level left
Acetolactate synthase [29] = molecular target: Acetolactate synthase (Lolium rigidum, UniProt A7XBP7, P197R/P197S); assay: Inhibition of acetolactate synthase Pro-197/Arg-197 or Pro-197/Ser-197 or Pro/Val or Ala/Leu mutant in Lolium rigidum accession A17 leaves extracts by acetolactate production assay; settings: read-out: I50
[30] = molecular target: T2, Acetolactate synthase (Lolium rigidum); assay: Resistance index, ratio of I50 for acetolactate synthase Ala-197/Ala-197 mutant in Lolium rigidum accession A20 leaves extracts to I50 for acetolactate synthase in Lolium rigidum accession A01 leaves extracts
Lolium rigidum [31] = assay: Herbicidal activity against Lolium rigidum accession A14 assessed as fresh weight reduction applied at 1 times pre-emergence recommended rate applied in pots where terbufos had been incorporated into the soil relative to untreated control; type: functional; set-up: scale not given: the % may be the effect or the level left
Acetolactate synthase [32] = molecular target: T1, Acetolactate synthase; assay: Inhibition of acetolactate synthase Pro-197/Pro-197 mutant in Lolium rigidum accession A09 leaves extracts by acetolactate production assay; settings: read-out: I50
[33] = molecular target: T2, Acetolactate synthase (Lolium rigidum); assay: Resistance index, ratio of I50 for acetolactate synthase Pro-197/Pro-197 mutant in Lolium rigidum accession A11 leaves extracts to I50 for acetolactate synthase in Lolium rigidum accession A01 leaves extracts

COc1nc(C)nc(NC(=O)NS(=O)(=O)c2ccccc2Cl)n1 [CHLORSULFURON]
Activity (Lolium rigidum [1]): 11% | Activity (Lolium rigidum [2]): 99% | IC50 (Acetolactate synthase [3]): 1580 nM | Activity (Lolium rigidum [4]): 94% | Activity (Lolium rigidum [5]): 97% | Activity (Lolium rigidum [6]): 99% | Activity (Lolium rigidum [7]): 89% | Activity (Lolium rigidum [8]): 97% | Activity (Lolium rigidum [9]): 2% | Activity (Lolium rigidum [10]): 0% | Activity (Lolium rigidum [11]): 95% | Activity (Lolium rigidum [12]): 96% | Ratio [13]: 163 | Activity (Lolium rigidum [14]): 42% | Activity (Lolium rigidum [15]): 2% | Activity (Lolium rigidum [16]): 85% | Activity (Lolium rigidum [17]): 95% | Activity (Lolium rigidum [18]): 49% | Ratio [19]: 564 | Ratio [20]: 257 | Activity (Lolium rigidum [21]): 1% | Activity (Lolium rigidum [22]): 0% | Activity (Lolium rigidum [23]): 45% | Activity (Lolium rigidum [24]): 1% | IC50 (Acetolactate synthase [25]): 14100 nM | Activity (Lolium rigidum [26]): 100% | Activity (Lolium rigidum [27]): 1% | Activity (Lolium rigidum [28]): 9% | IC50 (Acetolactate synthase [29]): 870 nM | Ratio [30]: 36 | Activity (Lolium rigidum [31]): 98% | IC50 (Acetolactate synthase [32]): 30 nM | Ratio [33]: 1
